Assay results reported in PMC9655618 (Cancers, 2022).

Assays:
[1] = system: ERα, pS2 and PR mRNA in Ishikawa cells; assay: Quantitative real-time PCR of ERα-regulated genes; format: cell-based, human; settings: for effect on E2-induced mRNA expression: 3 h pretreatment, E2 10 nM 24 h; for induction of basal mRNA level of PR gene: absence of E2
Description: (§1) For gene expression analysis, MCF-7 and Ishikawa cells were deprived of steroid hormones by using a 10DCC-FBS medium for five days. Then, 1,500,000 cells/dish were seeded in 5DCC-FBS, followed by treatment with test compounds. Total RNA was isolated by using TRItidy G™ (Panreac Applichem ITW Reagents, Darmstadt, Germany). The concentration and purity of RNA were determined with a NanoDrop 1000 spectrophotometer (Wilmington, NC, USA). Then, 1 µg of total RNA was reversed and amplified with the iScriptTM kit (Bio-Rad) following the manufacturer’s protocol. SYBR Green PCR Master mix (Applied Biosystems, Bedford, MA, USA) reagent and exon-specific primers for ERα were used for Real-time quantitative PCR (qPCR). Gene expression was analyzed with an Mx3005P qPCR System (Agilent, Santa Clara, CA, USA), and cycle threshold values were calculated using MxPro qPCR Software (Agilent, CA, USA). Target gene expression was normalized to the expression of the 18S housekeeping gene. Data were expressed as relative expression values according to the comparative CT method for qPCR [42].

[2] = system: ERα, pS2 and PR mRNA in MCF-7 cells; assay: Quantitative real-time PCR of ERα-regulated genes; format: cell-based, human; settings: 3 h pretreatment, E2 10 nM 24 h; 32 5 µM, 35 10 µM, ICI 0.1 µM, 4-OHTAM 1 µM
Description: as §1

[3] = target: T1, native ERα from rat uterine cytosol (Rattus norvegicus, UniProt P06211); assay: Radiolabeled E2 competitor binding assay in rat uterine cytosol (RUC)
T1 construct: from tissue; host or cells: uterine cytosol of ovariectomized Sprague-Dawley rats
T1 sequence (P06211 whole entry): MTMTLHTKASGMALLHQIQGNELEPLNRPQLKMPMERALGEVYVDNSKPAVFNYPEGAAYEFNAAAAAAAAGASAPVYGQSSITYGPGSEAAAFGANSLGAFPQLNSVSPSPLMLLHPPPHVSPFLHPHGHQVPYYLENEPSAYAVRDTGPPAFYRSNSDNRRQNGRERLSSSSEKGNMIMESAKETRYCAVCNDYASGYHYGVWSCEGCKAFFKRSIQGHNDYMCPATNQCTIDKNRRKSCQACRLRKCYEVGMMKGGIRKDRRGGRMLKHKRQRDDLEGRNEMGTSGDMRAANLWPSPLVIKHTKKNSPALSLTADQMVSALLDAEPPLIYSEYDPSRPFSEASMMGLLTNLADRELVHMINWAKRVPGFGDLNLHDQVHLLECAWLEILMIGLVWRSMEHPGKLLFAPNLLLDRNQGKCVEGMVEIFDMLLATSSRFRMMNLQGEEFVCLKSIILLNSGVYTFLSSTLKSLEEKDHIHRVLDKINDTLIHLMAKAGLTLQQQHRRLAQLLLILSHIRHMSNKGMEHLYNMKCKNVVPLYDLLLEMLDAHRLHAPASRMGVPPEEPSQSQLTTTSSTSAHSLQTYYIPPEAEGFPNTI
Description: Animal studies were approved by the Bioethics Committee of the University of Las Palmas de Gran Canaria (OEBA-ULPGC 40/2020), and the experiments were carried out according to OECD guidelines (ER-RVC OPPTS 890.1250). ER was obtained from rat uterine cytosol (RUC). Briefly, RUC was extracted from 8–12 weeks old Sprague-Dawley rats 13–16 days after they were ovariectomized under ketamine (75 mg/kg)/medetomidine (1 mg/kg) anesthesia. Uteri were removed, trimmed free of adipose tissue, blotted, weighed and frozen on liquid nitrogen until RUC isolation. Then, 100 mg of uteri per ml of ice-cold TEGM buffer (10 mM Tris, 1.5 mM EDTA, 10% glycerol, 3 mM MgCl2, 1 mM PMSF, 1 mM DTT, pH 7.4) were homogenized by using a Polytron PT3000 homogenizer (Kinematica, Malters, Switzerland) at 15,000 rpm for 3 bursts of 30″ each. The homogenate was sedimented, and the supernatant was centrifuged at 105,000 g for 60 min at 4 °C to obtain RUC. Protein concentration was determined by Bradford´s assay (Bio-Rad, Irvine, CA, USA), and 2 mg/mL of RUC was taken from all samples [35]. […] Then, 200 μL of DCC suspension (0.8% charcoal: 0.08% dextran; w:w) in cold TE buffer was added to each tube and incubated for 10 min before DCC was centrifuged at 3000 g for 10 min at 4 °C. Supernatant (200 μL) was obtained to measure total and non-specific bound radioactivity in TRICARB 4810 LSC counter (PerkinElmer). […]

[4] = system: alkaline phosphatase (ALP) activity in Ishikawa cells; assay: Alkaline phosphatase assay; format: cell-based, human; settings: for effect on E2-induced ALP activity: E2 10 nM, 48 h and 72 h
Description: Human endometrium cells ([…]) were cultured in MEM without phenol red with Earle's Salts culture, which was supplemented with estrogen-deprived 10 DCC-FBS du-ring 5 days. […] Cells were washed with ice-cold PBS, and Alkaline Phosphatase (ALP) activity was measured by using ALP Assay Kit (Abcam, Cambridge, MA, USA). The substrate p-nitrophenyl phosphate (pNPP) and the ALP enzyme were used to detect ALP activity by the analysis of the optical density at 405 nm in the iMark microplate Reader (Bio-Rad, Irvine, CA, USA). […] Protein concentration was quantified with the bicinchoninic acid assay (BCA) kit (Bio-Rad).

[5] = system: Ishikawa cells; assay: Real-time monitoring of cell proliferation and cytotoxicity (YOYO-1); settings: for effect on growth of E2-depleted Ishikawa cells: 4-OHTAM 3 μM, compounds 5 µM, 7 days; for IC50: Homo sapiens, Ishikawa, 120 h, read-out: IC50, cell proliferation (AUC)
Description: (§2) To monitor long-term growth, human ER+ BC (T47-D, MCF-7, MCF-7/BUS), ER+ endometrial (Ishiwaka, High Point, NC, USA), or non-malignant breast (MCF-10A) cells were seeded at 3000–6000 cells per well. […] When indicated, cells were estrogen-deprived in a 10DCC-FBS supplemented medium for one week. […] Cytotoxicity was monitored by using YOYO-1 (Invitrogen, Waltham, MA, USA). Cell proliferation and cytotoxicity were monitored by sequential real-time microphotographs in an IncuCyte HD real-time imaging system (Essen BioScience, Hertfordshire, UK) for 5–10 days. The area under the curve (AUC) was then analyzed to know both the kinetics and dose-effect relationships. […] Next, cells were treated with VEH (0.05% DMSO) or test compounds for 5–10 days. Spheroid size and cell cytotoxicity were recorded with the Incucyte SX5 Live-Cell Analysis Instrument (Sartorius AG, Göttingen, Germany). To calculate the spheroid growth area, confluence measurements were taken considering the largest brightfield object area (µm^2). Cytotoxicity was monitored by using YOYO-1 (Essen Bioscience, Hertfordshire, UK).

[6] = as above; settings: human, Ishikawa cells (ER+ endometrial cancer cells)
Description: as §2

Compound	effect on E2-induced mRNA expression [1]	induction of basal mRNA level of PR gene [1] [fold]	effect on E2-induced mRNA expression [2]	IC50 [3] [µM]	effect on E2-induced ALP activity [4]	Emax ([4]; Homo sapiens, Ishikawa, read-out: ALP activity, % of E2-induced maximal activity (Emax)) [%]	effect on growth of E2-depleted Ishikawa cells [5]	IC50 [5] [µM]	EC50 at 5 days [6] [µM]	ALP activity, % of E2-induced maximal activity (Emax) ([4]; absence of E2)
Cc1ccc(C2=CC(O)(c3ccccc3)N(Cc3ccccc3)C2=O)cc1C (stereo not drawn) [compound 32, 1-benzyl-3-(3,4-dimethylphenyl)-5-hydroxy-5-phenyl-1H-pyrrol-2(5H)-one]	significative reduction of PR-activated gene expression	2.5	inhibited E2-induced ERα, pS2 and PR mRNA expression	128.4 ± 1.25	inhibited E2-induced ALP activity	18	this effect was not observed	2.1	> 10	
O=C1C(c2ccc([N+](=O)[O-])cc2)=CC(O)(c2ccccc2)N1Cc1ccccc1 (stereo not drawn) [compound 35, 1-benzyl-5-hydroxy-3-(4-nitrophenyl)-5-phenyl-1H-pyrrol-2(5H)-one]	notably downregulated E2-induced ERα and PR mRNA levels	5	inhibited E2-induced ERα, pS2 and PR mRNA expression	76.6 ± 1.3	inhibited E2-induced ALP activity		this effect was not observed	3.81	10	did not affect basal
